Results taken from patent publication US20250154288A1, “CYTOTOXICITY TARGETING CHIMERAS FOR C-C CHEMOKINE RECEPTOR 2-EXPRESSING CELLS” (GLAXOSMITHKLINE INTELLECTUAL PROPERTY DEVELOPMENT LIMITED, priority 2022, published 2025).
Where a name gives a salt, the structure may show the parent alone.

Legend:
[1] = tested on: CCR2 expressing cells (CD11b+Ly6c+ Hi) in peripheral blood; assay: In Vivo Depletion Assay (flow cytometry of peripheral blood); parameters: species or system Human CCR2 (hCCR2) knock-in mice; conditions: hCCR2 knock-in mice; IV 0.1 mpk compound + 10 mpk anti-cotinine antibody (mouse IgG2a Fc); peripheral blood at 48 hr
Description: Human CCR2 (hCCR2) knock-in mice (057 background) were dosed intravenously with a PBS solution containing a compound of Formula (I) to measure depletion of CCR2 expressing cells in peripheral blood. Peripheral blood from IV dosed mice was also analyzed to determine PK properties of the ARM compounds of Formula (I).
Stock solution preparation: Stock solutions of compounds of Formula (I) were prepared at 20 mg/mL and 100 mg/mL in DMSO for PK/PD and dose tolerability studies respectively. Stock solutions were stored at −20° C. until further usage.
Formulations preparation: On the day of experiment, the stock solution of the compound of Formula (I) was removed from storage at −20° C. and thawed at room temperature. Anti-cotinine antibody having a heavy chain sequence of SEQ ID NO: 13 and a light chain sequence of SEQ ID NO: 14 (rabbit variable region sequence with mouse IgG2a Fc domain), if required was removed from storage at −80° C. and thawed at room temperature. Antibody vials were immediately transferred into wet ice after thawing. Compounds of Formula (I) were further diluted in DMSO as per experimental requirements.
Formulation composition: The formulation composition was Saline: DMSO: PBS. Saline was added based on the quantity required and then stock solution of the compound of Formula (I) prepared in DMSO, followed by addition of antibody in PBS. Formulations were incubated at room temperature for 30 minutes before administration to the mouse. DMSO was used at 1 to 2% (v/v) in the final formulation.
Administration to Animal: Solution formulation of antibody and compound of Formula (I) was injected (bolus injection) to the restrained mouse in the right/left lateral tail vein. Animals were dosed with 0.1 milligram per kilogram (mpk) of the compound of Formula (I) and 10 mpk of the anti-cotinine antibody.
Terminal bleeding at end of experiment (48 hr): Approximately 250 μL of blood in K2EDTA tube and approximately 250 μL of blood in SST (serum separation tube) was collected from each mouse through retro-orbital bleeding under deep isoflurane anesthesia. After bleeding, each mouse was sacrificed by cervical dislocation. The blood distribution at termination was determined as follows: • For PK: 50 μL of K2EDTA blood was transferred to another tube for PK • Flow cytometry: Remaining blood (˜200 μL) was used for flow cytometry analysis. • For serum collection: serum separator tubes (BD) were centrifuged at 4° C., 5000 rpm for 15 minutes. Approximately 100 μL serum was separated and stored at −80° C. for further usage. • Blood drug concentration: Samples collected at the various timepoints (0.25 hr, 2 hr, 24 and 48 hr) were analyzed to determine blood drug concentration.
CCR2 depletion in peripheral blood was determined by flow cytometry. Briefly, peripheral blood was collected from all animals at the end of study termination and processed. Blood samples were lysed using 1×RBC Lysis buffer and the resulting cell pellet was washed twice in FACS buffer (HBSS containing 5% FBS). Cells were subjected to Fc blocking using mouse Fc block from Biolegend (Trustain, anti-mouse CD16/32, Cat: 101319) to block non-specific binding followed by surface staining for immune markers (CD45, CD3, CD11b, Ly6C, human CCR2). Surface staining was done for 30 minutes in ice and cells were washed twice to remove unbound antibodies. Cells were stained with 7AAD to determine viability and acquired on BD FACSVerse flow cytometer. Appropriate FMO controls and single-color controls were included in the experiment for gating and compensation respectively.
Percent depletion of CD11b+Ly6c+ Hi cells and CCR2 expression for the different treatment groups was determined. The results are shown below in Table 4 and are reported as percent (%) depletion of CCR2 expressing cells.

[2] = target: human alpha1 nicotinic acetylcholine (nACh) receptor (Homo sapiens, UniProt P02708+Q07001); assay: Nicotinic Acetylcholine Receptor Antagonism Assay (IONFlux automated patch clamp); assay type: cell-based; conditions: for IC50: antagonism of nAChR stimulated with acetylcholine, average if several runs; for Emax at 100 µM: maximum percentage antagonism at Maximum Concentration of Compound Tested 100 μM, read-out: Maximum Response (%)
Chain of human alpha1 nicotinic acetylcholine (nACh) receptor (P02708 21-457): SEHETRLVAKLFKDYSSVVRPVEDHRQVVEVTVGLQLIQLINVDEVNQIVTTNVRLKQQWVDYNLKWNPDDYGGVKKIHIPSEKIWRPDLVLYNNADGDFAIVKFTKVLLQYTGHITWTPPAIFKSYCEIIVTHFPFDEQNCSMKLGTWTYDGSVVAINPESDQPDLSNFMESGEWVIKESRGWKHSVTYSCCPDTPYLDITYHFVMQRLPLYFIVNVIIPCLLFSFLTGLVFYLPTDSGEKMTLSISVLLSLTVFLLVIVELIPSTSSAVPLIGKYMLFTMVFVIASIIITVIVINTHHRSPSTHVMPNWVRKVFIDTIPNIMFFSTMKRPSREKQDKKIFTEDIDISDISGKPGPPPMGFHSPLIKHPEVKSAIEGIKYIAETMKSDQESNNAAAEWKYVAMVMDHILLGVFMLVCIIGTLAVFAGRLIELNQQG
Chain of human alpha1 nicotinic acetylcholine (nACh) receptor (P11230 24-501 partner): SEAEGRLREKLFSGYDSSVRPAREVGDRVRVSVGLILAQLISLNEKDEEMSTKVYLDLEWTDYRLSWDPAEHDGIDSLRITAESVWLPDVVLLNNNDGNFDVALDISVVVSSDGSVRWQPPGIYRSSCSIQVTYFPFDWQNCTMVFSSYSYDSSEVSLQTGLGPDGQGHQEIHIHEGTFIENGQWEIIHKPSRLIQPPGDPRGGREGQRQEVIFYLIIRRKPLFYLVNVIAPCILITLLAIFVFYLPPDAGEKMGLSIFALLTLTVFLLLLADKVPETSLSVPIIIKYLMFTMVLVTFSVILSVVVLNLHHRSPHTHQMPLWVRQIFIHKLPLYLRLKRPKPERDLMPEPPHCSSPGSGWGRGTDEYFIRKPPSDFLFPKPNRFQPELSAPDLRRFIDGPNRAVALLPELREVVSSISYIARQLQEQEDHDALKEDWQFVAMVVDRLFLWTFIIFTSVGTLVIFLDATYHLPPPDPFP
Chain of human alpha1 nicotinic acetylcholine (nACh) receptor (Q07001 22-517): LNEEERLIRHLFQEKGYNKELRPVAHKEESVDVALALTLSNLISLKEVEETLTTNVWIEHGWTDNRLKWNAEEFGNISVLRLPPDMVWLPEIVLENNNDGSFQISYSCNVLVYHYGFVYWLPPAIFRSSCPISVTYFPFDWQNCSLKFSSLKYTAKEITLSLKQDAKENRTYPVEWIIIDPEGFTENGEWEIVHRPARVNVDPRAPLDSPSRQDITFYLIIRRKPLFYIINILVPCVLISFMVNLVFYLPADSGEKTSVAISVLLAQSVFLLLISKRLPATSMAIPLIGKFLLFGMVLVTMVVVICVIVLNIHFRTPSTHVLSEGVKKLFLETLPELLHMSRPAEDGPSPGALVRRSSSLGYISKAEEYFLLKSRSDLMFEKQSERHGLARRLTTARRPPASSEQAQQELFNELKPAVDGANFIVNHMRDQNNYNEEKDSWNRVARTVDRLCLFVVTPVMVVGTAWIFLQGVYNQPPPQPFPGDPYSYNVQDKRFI
Description: Cells expressing human alpha1 nicotinic acetylcholine (nACh) receptor (nAChR) were washed and dissociated using Trypsin containing buffer. Cells were then washed and seeded at a density of 3-5 million cells/mL and allowed to grow for 3 days. Then, 60-80 μL of cells were added to plates and incubated with dose response of an ARM compound of Formula (I) with a top concentration of either 10 μM or 100 μM. The receptor was then stimulated via addition of acetylcholine (ACh) and activation of the receptor was monitored via the IONFlux automated patch clamp system. IonFlux Data Analyzer software was utilized to perform leak subtraction and measure (min) peak current amplitude.
Data processing: (1) Current values recorded for vehicle only applications in individual traps/patterns were subtracted from corresponding current amplitude values for control, test article and control+test article. (2) Control response was calculated as % of the average response of the 3rd out of total 3 ACh (10 mM) applications alone. In rare situations, if the 3rd ACh response was obscured due to technical artifacts, the 2nd and/or 1st ACh (10 mM) application was considered as control. The peak current amplitude generated in the presence of each test article concentration was then used to calculate the % inhibition as compared to control response (10 mM ACh alone). These estimates were further corrected for vehicle response and run down corrected by normalizing with time matched control responses (10 mM ACh alone). The corrected percentages were then fit with a non-linear function in GraphPad Prism 6 (or later versions) to determine the IC50.
Exclusion criteria: (i) any n's with poor recording quality, (ii) control current amplitude <500 pA or (iii) significant outliers, as determined by the Grubbs' test.
ARMs compounds of Formula (I) of the invention were tested for antagonism of the nAChR in the above assay in […] experimental runs and the results are shown in Table 6 below. Antagonistic activity of the compounds of Formula (I) of the invention is reported as an IC50 value (half maximal inhibitory concentration) and the maximum percentage antagonism observed at the highest concentration of compound of Formula (I) tested, as indicated in Table 6. For compounds tested in more than one experimental run, the IC50 value is reported as an average.

Structure (SMILES): CO[C@@H]1COCC[C@@H]1N[C@@H]1CC[C@](CCCCNC(=O)[C@H]2CC[C@H](NC(=O)CCCO[C@H]3CC[C@H](OCCNC(=O)[C@H]4CC(=O)N(C)[C@@H]4c4cccnc4)CC3)CC2)(C(=O)N2CCc3ncc(C(F)(F)F)cc3C2)C1 [Example 7, (2S,3S)-N-(2-(((1R,4S)-4-(4-(((1S,4R)-4-((4-((1S,3R)-3-(((3S,4S)-3-Methoxytetrahydro-2H-pyran-4-yl)amino)-1-(3-(trifluoromethyl)-5,6,7,8-tetrahydro-1,6-naphthyridine-6-carbonyl)cyclopentyl)butyl)carbamoyl)cyclohexyl)amino)-4-oxobutoxy)cyclohexyl)oxy)ethyl)-1-methyl-5-oxo-2-(pyridin-3-yl)pyrrolidine-3-carboxamide]
- % Depletion of CCR2 expressing cells [1]: 86.93%
- IC50 [2]: 94 µM
- Emax at 100 µM [2]: 54%

Structure (SMILES): CO[C@@H]1COCC[C@@H]1N[C@@H]1CC[C@](CCNC(=O)[C@H]2CC[C@H](NC(=O)CCCO[C@H]3CC[C@H](OCCNC(=O)[C@H]4CC(=O)N(C)[C@@H]4c4cccnc4)CC3)CC2)(C(=O)N2CCc3ncc(C(F)(F)F)cc3C2)C1 [Example 8, (2S,3S)-N-(2-(((1R,4S)-4-(4-(((1R,4R)-4-((2-((1R,3R)-3-(((3S,4S)-3-Methoxytetrahydro-2H-pyran-4-yl)amino)-1-(3-(trifluoromethyl)-5,6,7,8-tetrahydro-1,6-naphthyridine-6-carbonyl)cyclopentyl)ethyl)carbamoyl)cyclohexyl)amino)-4-oxobutoxy)cyclohexyl)oxy)ethyl)-1-methyl-5-oxo-2-(pyridin-3-yl)pyrrolidine-3-carboxamide]
- % Depletion of CCR2 expressing cells [1]: 99.22%
- Emax at 100 µM [2]: 48%

Structure (SMILES): CO[C@@H]1COCC[C@@H]1N[C@@H]1CC[C@](COCCNC(=O)[C@H]2CC[C@H](NC(=O)CCCO[C@H]3CC[C@H](OCCNC(=O)[C@H]4CC(=O)N(C)[C@@H]4c4cccnc4)CC3)CC2)(C(=O)N2CCc3ncc(C(F)(F)F)cc3C2)C1 [Example 11, (2S,3S)-N-(2-(((1R,4S)-4-(4-(((1S,4R)-4-((2-(((1S,3R)-3-(((3S,4S)-3-Methoxytetrahydro-2H-pyran-4-yl)amino)-1-(3-(trifluoromethyl)-5,6,7,8-tetrahydro-1,6-naphthyridine-6-carbonyl)cyclopentyl)methoxy)ethyl)carbamoyl)cyclohexyl)amino)-4-oxobutoxy)cyclohexyl)oxy)ethyl)-1-methyl-5-oxo-2-(pyridin-3-yl)pyrrolidine-3-carboxamide]
- % Depletion of CCR2 expressing cells [1]: 89.3%
- IC50 [2]: > 100 µM
- Emax at 100 µM [2]: 39%

Structure (SMILES): CO[C@@H]1COCC[C@@H]1N[C@@H]1CC[C@@](C(=O)N2Cc3cc(C(F)(F)F)cnc3[C@H](NC(=O)[C@H]3CC[C@H](NC(=O)CCCO[C@H]4CC[C@H](OCCNC(=O)[C@H]5CC(=O)N(C)[C@@H]5c5cccnc5)CC4)CC3)C2)(C(C)C)C1 [Example 14, (2S,3S)-N-(2-(((1R,4S)-4-(4-(((1R,4R)-4-(((R)-6-((1S,3R)-1-isopropyl-3-(((3S,4S)-3-methoxytetrahydro-2H-pyran-4-yl)amino)cyclopentane-1-carbonyl)-3-(trifluoromethyl)-5,6,7,8-tetrahydro-1,6-naphthyridin-8-yl)carbamoyl)cyclohexyl)amino)-4-oxobutoxy)cyclohexyl)oxy)ethyl)-1-methyl-5-oxo-2-(pyridin-3-yl)pyrrolidine-3-carboxamide, 3Formic acid salt]
- % Depletion of CCR2 expressing cells [1]: 92.3%
- IC50 [2]: > 100 µM
- Emax at 100 µM [2]: 38%

Structure (SMILES): CO[C@@H]1COCC[C@@H]1N[C@@H]1CC[C@](CCCNC(=O)[C@H]2CC[C@@H](NC(=O)CCOCCOCCOCCNC(=O)[C@H]3CC(=O)N(C)[C@@H]3c3cccnc3)CC2)(C(=O)N2CCc3ncc(C(F)(F)F)cc3C2)C1 [Example 17, (2S,3S)—N-(2-(2-(2-(3-(((1R,4s)-4-((3-((1S,3R)-3-(((3S,4S)-3-Methoxytetrahydro-2H-pyran-4-yl)amino)-1-(3-(trifluoromethyl)-5,6,7,8-tetrahydro-1,6-naphthyridine-6-carbonyl)cyclopentyl)propyl)carbamoyl)cyclohexyl)amino)-3-oxopropoxy)ethoxy)ethoxy)ethyl)-1-methyl-5-oxo-2-(pyridin-3-yl)pyrrolidine-3-carboxamide, Formic acid salt]
- % Depletion of CCR2 expressing cells [1]: 96.07%
- IC50 [2]: ≥ 100 µM
- Emax at 100 µM [2]: 21%

Structure (SMILES): CO[C@H]1COCC[C@H]1N[C@H]1CC[C@@](CCCNC(=O)[C@H]2CC[C@@H](NC(=O)CCOCCOCCNC(=O)CCNC(=O)[C@H]3CC(=O)N(C)[C@@H]3c3cccnc3)CC2)(C(=O)N2CCc3ncc(C(F)(F)F)cc3C2)C1 [Example 19, (2S,3S)—N-(3-((2-(2-(3-(((1s,4s)-4-((3-((1R,3S)-3-(((3R,4R)-3-Methoxytetrahydro-2H-pyran-4-yl)amino)-1-(3-(trifluoromethyl)-5,6,7,8-tetrahydro-1,6-naphthyridine-6-carbonyl)cyclopentyl)propyl)carbamoyl)cyclohexyl)amino)-3-oxopropoxy)ethoxy)ethyl)amino)-3-oxopropyl)-1-methyl-5-oxo-2-(pyridin-3-yl)pyrrolidine-3-carboxamide]
- % Depletion of CCR2 expressing cells [1]: 85.39%
- IC50 [2]: > 100 µM
- Emax at 100 µM [2]: 8%

Structure (SMILES): CO[C@@H]1COCC[C@@H]1N[C@@H]1CC[C@](CCCNC(=O)CCOCCOCCO[C@H]2CC[C@H](OCCNC(=O)[C@H]3CC(=O)N(C)[C@@H]3c3cccnc3)CC2)(C(=O)N2CCc3ncc(C(F)(F)F)cc3C2)C1 [Example 20, ((2S,3S)—N-(2-(((1r,4S)-4-(2-(2-(3-((3-((1S,3R)-3-(((3S,4S)-3-Methoxytetrahydro-2H-pyran-4-yl)amino)-1-(3-(trifluoromethyl)-5,6,7,8-tetrahydro-1,6-naphthyridine-6-carbonyl)cyclopentyl)propyl)amino)-3-oxopropoxy)ethoxy)ethoxy)cyclohexyl)oxy)ethyl)-1-methyl-5-oxo-2-(pyridin-3-yl)pyrrolidine-3-carboxamide, Formic acid salt]
- % Depletion of CCR2 expressing cells [1]: 87.3%
- Emax at 100 µM [2]: 74%
